Test results published in patent US5698590A, “Prostaglandin derivatives” (Ono Pharmaceutical Co., Ltd., priority 1995, dated 1997).

Key:
[1] = solubility of comparative compound; type: physicochemical; details: administration without solubilizer was impossible
[2] = test system: cutaneous blood flow of the dorsum pedis; test: blood flow increasing effect in anesthetized rats (laser-Doppler flowmetry, AUC); type: in vivo, Male rats; parameters: Blood flow increasing effect: Total AUC: unit not given here; details: for Blood flow increasing effect: Total AUC / Blood flow increasing effect: Dose (A) required to obtain AUC = 771: rat; for Blood flow increasing effect: Total AUC: injection via jugular vein; for Blood flow increasing effect: Dose (A) required to obtain AUC = 771: AUC 771 = effect of PGE1 lipid emulsion 5 μg/kg i.v.; for Blood flow increasing effect: Relative activity (X): relative to comparative compound = 1, from Dose (A)
Protocol: (§1) Male rats weighing 200-350 g were anesthetized with urethane (25% urethane, 6 ml/kg, s.c.). The carotid artery and jugular vein were cannulated with polyethylene tubes for measurement of blood pressure and for drug injection, respectively. Blood pressure was obtained with a disposable pressure transducer kit (Spectramed, Ltd) and recorded with a recticoder (model RJG-4128, Nihon kohden, Ltd). Also, blood flow was monitored as cutaneous blood flow of the dorsum pedis using an attachment-type laser-Doppler flowmeter (model ALF21, Advance, Ltd). Measurements were taken until the values recovered to the level observed before injection of drugs. Injection time was about 10 seconds. The hypotensive effect and blood flow increasing effect were calculated as the maximum hypotensive activity (mmHg) and the area under the curve (AUC) after injection of drugs, respectively.
(§2) The results were represented by the dose required to obtain an effective increase in blood flow (main effect), and by the hypotensive effect (side effect) at the same dose.
(§3) The compounds of the present invention were administered in the form of liposome formulations (as prepared in Example 3 below). […] The solubility of this comparative compound was very low; thus, administration without solubilizer was impossible.
The effectiveness of increasing blood flow was determined by the following method.
(§4) The dry lipid film was dispersed into a 10% maltose solution (3 ml) by using a vortex mixer (type S-100, Taiyokagaku Inc.) and an aqueous suspension with a drug concentration of 1, 3, 10, or 30 μg/ml was obtained. The obtained multilamellar liposome solutions (3 ml) were transferred into plastic tubes and then sonicated with a probe sonicator (type: SONIFIER cell disruptor 200, Branson) at the condition of 50% pulsed operation for 15 minutes. The sonicated solutions were passed through a membrane filter with a pore diameter of 0.2 μm to remove titanium particles and liposome formulations with a mean diameter of 40-70 nm were formed.

[3] = test system: blood pressure; test: hypotensive effect in anesthetized rats (maximum hypotensive activity); type: in vivo, Male rats; details: for Hypotensive effect: Maximum hypotension on dose (A): at dose (A) required to obtain AUC = 771; for Hypotensive effect: Maximum hypotension on dose (A) / Hypotensive effect: Maximum hypotension: rat; for Hypotensive effect: Maximum hypotension: injection via jugular vein; for Hypotensive effect: Relative activity (X): relative to comparative compound = 1, at dose (A)
Protocol: as §1, §2, §3, §4

## CCCCCCCCCCCCCCCC(=O)OCC(COC(=O)CCCCCCCCCCCCCCC)OC(=O)CCCCCC[C@H]1C(=O)C[C@@H](O)[C@@H]1/C=C/[C@@H](O)CCCCC [Comparative compound, PGE1 1,3-bis(palmitoyloxy)-2-propyl ester, reference compound]
[1]
  solubility: very low
[2]; dose 3 μg/kg
  Blood flow increasing effect: Total AUC: 350
[2]; dose 10 μg/kg
  Blood flow increasing effect: Total AUC: 710
[2]; dose 30 μg/kg
  Blood flow increasing effect: Total AUC: 830
[2]
  Blood flow increasing effect: Dose (A) required to obtain AUC = 771: 23.6 µg/kg
  Blood flow increasing effect: Relative activity (X): 1
[3]
  Hypotensive effect: Maximum hypotension on dose (A): 7.1 mmHg
  Hypotensive effect: Relative activity (X): 1
[3]; dose 3 μg/kg
  Hypotensive effect: Maximum hypotension: 1 mmHg
[3]; dose 10 μg/kg
  Hypotensive effect: Maximum hypotension: 6 mmHg
[3]; dose 30 μg/kg
  Hypotensive effect: Maximum hypotension: 8 mmHg

## CCCCCCCCCCCC(=O)OCC(COC(=O)CCCCCCCCCCC)OC(=O)CCCCCC[C@H]1C(=O)C[C@@H](O)[C@@H]1/C=C/[C@@H](O)CCCCC [Example 1, PGE1 1,3-bis (dodecanoyloxy)-2-propyl ester]
[2]; dose 1 μg/kg
  Blood flow increasing effect: Total AUC: 116
[2]; dose 3 μg/kg
  Blood flow increasing effect: Total AUC: 483
[2]; dose 10 μg/kg
  Blood flow increasing effect: Total AUC: 2566
[2]
  Blood flow increasing effect: Dose (A) required to obtain AUC = 771: 3.6 µg/kg
  Blood flow increasing effect: Relative activity (X): 6.6
[3]
  Hypotensive effect: Maximum hypotension on dose (A): 2.2 mmHg
  Hypotensive effect: Relative activity (X): 0.31
[3]; dose 1 μg/kg
  Hypotensive effect: Maximum hypotension: 0 mmHg
[3]; dose 3 μg/kg
  Hypotensive effect: Maximum hypotension: 1 mmHg
[3]; dose 10 μg/kg
  Hypotensive effect: Maximum hypotension: 9 mmHg

## CCCCCC(=O)OCC(COC(=O)CCCCC)OC(=O)CCCCCC[C@H]1C(=O)C[C@@H](O)[C@@H]1/C=C/[C@@H](O)CCCCC [Example 2, PGE1 1,3-bis (hexanoyloxy)-2-propyl ester]
[2]; dose 1 μg/kg
  Blood flow increasing effect: Total AUC: 185
[2]; dose 3 μg/kg
  Blood flow increasing effect: Total AUC: 1206
[2]; dose 10 μg/kg
  Blood flow increasing effect: Total AUC: 3919
[2]
  Blood flow increasing effect: Dose (A) required to obtain AUC = 771: 2.2 µg/kg
  Blood flow increasing effect: Relative activity (X): 10.7
[3]
  Hypotensive effect: Maximum hypotension on dose (A): 6.7 mmHg
  Hypotensive effect: Relative activity (X): 0.94
[3]; dose 1 μg/kg
  Hypotensive effect: Maximum hypotension: 4 mmHg
[3]; dose 3 μg/kg
  Hypotensive effect: Maximum hypotension: 9 mmHg
[3]; dose 10 μg/kg
  Hypotensive effect: Maximum hypotension: 19 mmHg
